This assay relates to HSF1. Kind of assay: Phosphorylation (activation) of HSF1 in heat-shocked K562 cells, band shift 66 kDa to 81 kDa by SDS-PAGE/Western blotting. Format: cell-based, human. The text has this:
It is known that HSF1 (heat shock factor 1) protein is a transcription factor of Hsp70 (J. Biol. Chem., 271, pp. 3355-3358, 1996). Moreover, the HSF1 protein can be activated by phosphorylation, and this phosphorylation can be detected based on band shift in SDS-polyacrylamide gel electrophoresis (SDS-PAGE) (apparent molecular weight shifts from about 66 kDa to about 81 kDa). By utilizing this fact, the HA oligosaccharides of various sizes were allowed to act on the K562 cells given with stress, and the aforementioned band shift was detected to investigate the degree of the phosphorylation (activation) of HSF1.
HA4, ΔHA4, HA6, HA8, HA2-18 and HA 8-14 were each added to a medium containing the aforementioned cells at a concentration of 1, 10 or 100 ng/mL. Then, the cells were immediately transferred into an environment at 42° C. to be given with heat shock and incubated for 20 minutes. After the incubation, the cells were collected by centrifugation, and SDS-PAGE (gel concentration: 10%) was performed. Thereafter, Western blotting was performed by using anti-HSF1 monoclonal antibodies (produced by Stressgene) as primary antibodies and goat anti-mouse IgG monoclonal antibodies (produced by Jackson Lab) as secondary antibodies to detect the shift of a band of 66 kDa (HSF1 not phosphorylated) to a band of 81 kDa (phosphorylated HSF1).
In order to confirm the reproducibility of Experiment 1, the band shift was detected in the same manner as in Experiment 1 by using HA4, ΔHA4, HA8 and HA84 except that HA was added in a single kind of amount of 100 ng/mL, and the heat shock was given at 43° C. In FIG. 41, the first lane from the left indicates the result obtained with an extract of cells incubated at 37° C. (no addition of HA oligosaccharide), the second lane indicates the result obtained with an extract of cells subjected to 43° C. (no addition of HA oligosaccharide), and the first lane from the right indicates the result of detection of HSF1 (derived from bacteria) as a standard.
In order to investigate whether the action observed in Experiment 2 was specific to the saccharide chain basic structure of HA oligosaccharides, the following comparative experiment was performed by using chondroitin oligosaccharides. […] Therefore, it can be said that Ch is a substance extremely structurally analogous to HA, and the same shall also apply to the oligosaccharides thereof. • Saturated Ch tetrasaccharide (Ch4) • GlcAβ1-3GalNAcβ1-4GlcAβ1-3GalNAc • Saturated Ch hexasaccharide (Ch6) • GlcAβ1-3GalNAcβ1-4GlcAβ1-3GalNAcβ1-4GlcAβ1-3GalNAc • Saturated Ch octasaccharide (Ch8) • GlcAβ1-3GalNAcβ1-4GlcAβ1-3GalNAcβ1-4GlcAβ1-3GalNAcβ1-4GlcAβ1-3GalNAc
The same experiment as Experiment 2 was performed by using these oligosaccharides.
Background: Immunoblotting shows a protein as a band on a membrane.

The mark [1] stands for this setting: Experiment 2 (and comparative Experiment 3), 100 ng/mL, heat shock 43° C.

On to `CC(=O)N[C@H]1[C@H](O[C@H]2[C@H](O)[C@@H](O)[C@H](O[C@H]3[C@H](O)[C@@H](CO)OC(O)[C@@H]3NC(C)=O)O[C@@H]2C(=O)O)O[C@H](CO)[C@@H](O)[C@@H]1O[C@@H]1O[C@H](C(=O)O)[C@@H](O)[C@H](O)[C@H]1O.[Na].[Na]` (stereo partly drawn) [HA4, sodium β-D-glucopyranosyluronate-(1→3)-2-acetamido-2-deoxy-β-D-glucopyranosyl-(1→4)-(sodium β-D-glucopyranosyluronate)-(1→3)-2-acetamido-2-deoxy-D-glucopyranose], for which the “shift of a band of 66 kDa (HSF1 not phosphorylated) to a band of 81 kDa (phosphorylated HSF1)” value (Experiment 1, 1, 10 or 100 ng/mL, heat shock 42° C., 20 minutes) is “shift to the 81 kDa band was observed depending on the amount of the added HA oligosaccharide”. Further, under setting [1], the “amount of HSF1 per se” value was “amounts of both HSF1 of 66 kDa and 81 kDa per se were also increased”; the “band shift of HSF1 (66 kDa to 81 kDa)” value was “band shift was observed”.
